Columns and labels:
Type in all cases: biochemical
[1] = molecular target: T1, human KDR enzyme (Homo sapiens, UniProt P35968); assay: KDR substrate (PLCγ) phosphorylation, scintillation assay; conditions: 10 μM; read-out: KDR % inhib at 10 μM
T1 construct: The cytoplasmic domain of the human KDR enzyme; GST; made in house; host or cells: SF21 insect cells (baculovirus)
Method in brief: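 GST-fused human KDR cytoplasmic domain from SF21 cells (about 60% pure, 100 ng) phosphorylated 2 μg of GST-PLCγ SH2-SH3 fragment. The trigger solution held γ33P-ATP with 2 μM cold ATP, in MOPS buffer pH 7.2 with Mg2+, Mn2+, vanadate and NaF. Reactions ran 1 h at 37 °C, were stopped with EDTA and counted by scintillation; results are % inhibition versus the no-compound control.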

[2] = molecular target: T2, human FAK (Homo sapiens, UniProt Q05397); assay: FAK autophosphorylation inhibition, time resolved fluorescence (HTRF) assay; conditions: for inhibition at 10 µM: 10 μM (values without asterisk), read-out: FAK % inhib at 10 μM; for inhibition at 30 µM: 30 μM (values marked *), read-out: FAK % inhib at 30* μM
T2 construct: The complete cDNA of human FAK; made in house; host or cells: baculovirus expression system (vector pFastBac HTc)
T2 sequence (Q05397 whole entry): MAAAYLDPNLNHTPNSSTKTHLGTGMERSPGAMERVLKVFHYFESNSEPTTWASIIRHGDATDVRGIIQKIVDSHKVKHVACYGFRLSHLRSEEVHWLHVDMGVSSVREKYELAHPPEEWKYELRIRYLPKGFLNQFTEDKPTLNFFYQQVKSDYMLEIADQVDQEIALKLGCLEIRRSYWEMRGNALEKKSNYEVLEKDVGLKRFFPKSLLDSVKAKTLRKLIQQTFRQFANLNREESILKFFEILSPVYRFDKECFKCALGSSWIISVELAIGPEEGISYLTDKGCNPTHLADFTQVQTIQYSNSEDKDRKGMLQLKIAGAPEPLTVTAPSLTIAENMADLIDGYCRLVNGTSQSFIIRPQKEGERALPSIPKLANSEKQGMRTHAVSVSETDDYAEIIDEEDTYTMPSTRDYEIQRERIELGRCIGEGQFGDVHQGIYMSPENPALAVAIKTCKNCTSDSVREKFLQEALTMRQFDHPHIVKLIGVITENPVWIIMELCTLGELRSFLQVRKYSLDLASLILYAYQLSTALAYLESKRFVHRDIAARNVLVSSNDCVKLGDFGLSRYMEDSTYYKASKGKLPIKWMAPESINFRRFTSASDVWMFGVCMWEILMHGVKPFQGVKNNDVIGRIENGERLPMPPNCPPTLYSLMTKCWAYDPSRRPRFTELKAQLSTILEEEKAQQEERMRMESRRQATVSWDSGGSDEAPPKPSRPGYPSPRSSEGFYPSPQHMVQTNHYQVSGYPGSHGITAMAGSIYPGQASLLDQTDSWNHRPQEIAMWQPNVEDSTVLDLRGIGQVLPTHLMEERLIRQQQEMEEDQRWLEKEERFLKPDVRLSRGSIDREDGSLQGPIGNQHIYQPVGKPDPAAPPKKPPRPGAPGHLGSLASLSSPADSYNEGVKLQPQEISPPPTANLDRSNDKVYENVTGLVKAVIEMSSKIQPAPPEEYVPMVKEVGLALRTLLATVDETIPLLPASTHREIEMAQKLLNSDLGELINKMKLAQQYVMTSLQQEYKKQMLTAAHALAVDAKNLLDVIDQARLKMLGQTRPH
Method in brief: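 His-tagged full-length human FAK from baculovirus (6.6 µg/ml) self-phosphorylates with 15 µM ATP in HEPES pH 7.2, MgCl2, vanadate, 1 h at 37 °C. HTRF detection (Eu-anti-phosphotyrosine / XL665-anti-His), 665/620 nm ratio; % inhibition vs untreated control, duplicate mean.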

[3] = molecular target: T3, Aurora2 kinase (Homo sapiens, UniProt O14965); assay: Aurora2 kinase radioactivity scintillation assay using nickel chelate (NuMA substrate); conditions: 10 μM; read-out: Aurora2 % inhib at 10 μM
T3 construct: A complete recombinant Aurora2 enzyme; His tag (N); made in house; host or cells: E. coli
T3 sequence (O14965 1-403): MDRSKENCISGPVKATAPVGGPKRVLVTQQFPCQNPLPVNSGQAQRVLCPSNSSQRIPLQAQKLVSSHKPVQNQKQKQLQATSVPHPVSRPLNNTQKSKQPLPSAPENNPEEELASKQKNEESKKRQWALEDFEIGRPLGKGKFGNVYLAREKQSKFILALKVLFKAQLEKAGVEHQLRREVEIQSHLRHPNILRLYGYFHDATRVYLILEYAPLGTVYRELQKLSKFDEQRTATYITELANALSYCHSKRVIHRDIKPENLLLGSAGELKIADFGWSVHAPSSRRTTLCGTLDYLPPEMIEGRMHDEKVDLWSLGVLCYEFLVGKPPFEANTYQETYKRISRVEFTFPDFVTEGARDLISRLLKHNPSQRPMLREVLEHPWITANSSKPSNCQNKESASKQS
Method in brief: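 His-tagged full-length Aurora2 (0.02 μM, E. coli) phosphorylating His-tagged NuMA C-terminal fragment (0.5 μM) with 1 μM ATP plus [33P]-ATP, 30 min at 37 °C, pH 7.5 Tris buffer with MgCl2. Nickel-chelate scintillation read; percent inhibition versus no-compound control.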

T1 sequence (P35968 786-1356 limits assumed): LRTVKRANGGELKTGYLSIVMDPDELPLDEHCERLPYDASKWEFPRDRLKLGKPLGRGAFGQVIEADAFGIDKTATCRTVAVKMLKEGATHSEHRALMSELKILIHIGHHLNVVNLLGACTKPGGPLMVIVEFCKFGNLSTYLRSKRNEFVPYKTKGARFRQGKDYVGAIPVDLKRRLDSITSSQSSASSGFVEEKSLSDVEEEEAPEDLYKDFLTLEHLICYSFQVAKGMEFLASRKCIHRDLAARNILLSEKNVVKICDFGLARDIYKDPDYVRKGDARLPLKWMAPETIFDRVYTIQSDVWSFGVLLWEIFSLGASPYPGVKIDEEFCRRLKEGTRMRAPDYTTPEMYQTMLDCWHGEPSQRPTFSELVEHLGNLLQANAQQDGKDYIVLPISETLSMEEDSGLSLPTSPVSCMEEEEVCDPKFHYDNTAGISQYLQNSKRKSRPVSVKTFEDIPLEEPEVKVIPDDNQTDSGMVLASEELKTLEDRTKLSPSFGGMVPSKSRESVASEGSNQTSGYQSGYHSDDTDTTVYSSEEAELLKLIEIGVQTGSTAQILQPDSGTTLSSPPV

| SMILES | inhibition at 10 µM [1] [%] | inhibition at 10 µM [2] [%] | inhibition at 10 µM [3] [%] | inhibition at 30 µM [2] [%] |
| --- | --- | --- | --- | --- |
| CS(=O)(=O)c1ccccc1S(=O)(=O)Nc1ccc2[nH]nc(-c3ccco3)c2c1 [Example 53, N-(3-Furan-2-yl-1H-indazol-5-yl)-2-methylsulfonylbenzenesulfonamide] | 42 | 96 | 91 | – |
| O=S(=O)(Nc1ccc2[nH]nc(-c3cc4ccccc4[nH]3)c2c1)c1ccccc1OC(F)(F)F [Example 84, N-[3-(1H-Indol-2-yl)-1H-indazol-5-yl]-2-trifluoromethoxybenzenesulfonamide] | 98 | 90 | 100 | – |
| Nc1n[nH]c2ccc(NS(=O)(=O)c3cccc(F)c3)cc12 [Example 26, N-(3-Amino-1H-indazol-5-yl)-3-fluorobenzenesulfonamide] | 24 | 96 | 95 | – |
| CS(=O)(=O)c1ccccc1S(=O)(=O)Nc1ccc2[nH]nc(-c3cccc(C#N)c3)c2c1 [Example 71, N-[3-(3-Cyanophenyl)-1H-indazol-5-yl]-2-methylsulfonylbenzenesulfonamide] | 83 | 97 | 93 | – |
| CS(=O)(=O)c1ccccc1S(=O)(=O)Nc1ccc2[nH]nc(NCc3ccccc3)c2c1 [Example 36, N-(3-Benzylamino-1H-indazol-5-yl)-2-methylsulfonylbenzenesulfonamide] | 23 | 92 | 80 | – |
| CS(=O)(=O)c1ccccc1S(=O)(=O)Nc1ccc2[nH]nc(/C=C/c3ccc(Cl)cc3)c2c1 [Example 76, N-{3-[(E)-2-(4-Chlorophenyl)vinyl]-1H-indazol-5-yl}-2-methylsulfonylbenzenesulfonamide] | 92 | 96 | 99 | – |
| CS(=O)(=O)c1ccccc1S(=O)(=O)Nc1ccc2[nH]nc(-c3ccoc3)c2c1 [Example 52, N-(3-Furan-3-yl-1H-indazol-5-yl)-2-methylsulfonylbenzenesulfonamide] | 49 | 93 | 84 | – |
| Cc1cc2[nH]nc(-c3ccccc3)c2cc1NS(=O)(=O)c1ccccc1S(C)(=O)=O [Example 92, 2-Methylsulfonyl-N-(6-methyl-3-phenyl-1H-indazol-5-yl)-benzenesulfonamide] | 66 | 27 | 70 | – |
| Nc1n[nH]c2ccc(NS(=O)(=O)c3c(F)cccc3F)cc12 [Example 40, N-(3-Amino-1H-indazol-5-yl)-2,6-difluorobenzenesulfonamide] | 22 | 55 | 70 | – |
| Nc1n[nH]c2ccc(NS(=O)(=O)c3c(Cl)cccc3Cl)cc12 [Example 41, N-(3-Amino-1H-indazol-5-yl)-2,6-dichlorobenzenesulfonamide] | 36 | 71 | 90 | – |
| CS(=O)(=O)c1ccccc1S(=O)(=O)Nc1ccc2[nH]nc(Cl)c2c1 [Example 1, N-(3-Chloro-1H-indazol-5-yl)-2-methylsulfonylbenzenesulfonamide] | 7 | – | 86 | 70 |
| COC(=O)/C=C/c1n[nH]c2ccc(NS(=O)(=O)c3ccccc3S(C)(=O)=O)cc12 [Example 79, Methyl (E)-3-[5(2-methylsulfonylbenzenesulfonylamino)-1H-indazol-3-yl]-acrylate] | 50 | 98 | 95 | – |
| CS(=O)(=O)c1ccccc1S(=O)(=O)Nc1ccc2[nH]nc(-c3ccc[nH]3)c2c1 [Example 60, 2-Methylsulfonyl-N-[3-(1H-pyrrol-2-yl)-1H-indazol-5-yl]benzenesulfonamide] | 64 | 99 | 100 | – |
| CS(=O)(=O)c1ccccc1S(=O)(=O)Nc1ccc2[nH]nc(-c3cc4ccccc4[nH]3)c2c1 [Example 61, N-[3-(1H-Indol-2-yl)-1H-indazol-5-yl]-2-methylsulfonylbenzenesulfonamide] | 98 | 99 | 100 | – |
| CS(=O)(=O)c1ccccc1S(=O)(=O)Nc1ccc2[nH]nc(C#Cc3ccccc3)c2c1 [Example 89, 2-Methylsulfonyl-N-(3-phenylethynyl-1H-indazol-5-yl)-benzenesulfonamide] | 85 | 92 | 92 | – |
| O=S(=O)(Nc1ccc2[nH]nc(Cl)c2c1)c1cccc(F)c1 [Example 3, N-(3-Chloro-1H-indazol-5-yl)-3-fluorobenzenesulfonamide] | 22 | – | 46 | 71 |

Results, then the compound that gave them:

| inhibition at 10 µM [1] [%] | inhibition at 10 µM [2] [%] | inhibition at 10 µM [3] [%] | inhibition at 30 µM [2] [%] | SMILES |
| --- | --- | --- | --- | --- |
| 88 | 73 | 100 | – | O=[N+]([O-])c1ccccc1S(=O)(=O)Nc1ccc2[nH]nc(-c3ccccc3)c2c1 [Example 113, 2-Nitro-N-(3-phenyl-1H-indazol-5-yl)benzenesulfonamide] |
| 96 | 12 | 67 | – | O=C(O)c1cccc(S(=O)(=O)Nc2ccc3[nH]nc(-c4ccccc4)c3c2)c1 [Example 133, 3-(3-Phenyl-1H-indazol-5-ylsulfamoyl)benzoic acid] |
| 88 | 36 | 65 | – | Nc1ccc(S(=O)(=O)Nc2ccc3[nH]nc(-c4ccccc4)c3c2)cc1 [Example 94, 4-Amino-N-(3-phenyl-1H-indazol-5-yl)benzenesulfonamide] |
| 93 | 75 | 100 | – | O=S(=O)(Nc1ccc2[nH]nc(-c3ccccc3)c2c1)c1ccccc1 [Example 112, N-(3-Phenyl-1H-indazol-5-yl)benzenesulfonamide] |
| 96 | 95 | 100 | – | O=S(=O)(Nc1ccc2[nH]nc(-c3ccccc3)c2c1)c1cc(F)cc(F)c1 [Example 158, 3,5-Difluoro-N-(3-phenyl-1H-indazol-5-yl)-benzenesulfonamide] |
| 91 | 61 | 100 | – | O=S(=O)(Nc1ccc2[nH]nc(-c3ccccc3)c2c1)c1ccccc1C(F)(F)F [Example 109, N-(3-Phenyl-1H-indazol-5-yl)-2-trifluoromethylbenzene-sulfonamide] |
| 93 | 53 | 100 | – | O=S(=O)(Nc1ccc2[nH]nc(-c3ccccc3)c2c1)c1ccc(F)cc1 [Example 117, 4-Fluoro-N-(3-phenyl-1H-indazol-5-yl)-benzenesulfonamide] |
| 91 | 50 | 100 | – | O=S(=O)(Nc1ccc2[nH]nc(-c3ccccc3)c2c1)c1ccc(Cl)s1 [Example 135, 5-Chloro-N-(3-phenyl-1H-indazol-5-yl)thiophene-2-sulfonamide] |
| 68 | 94 | 89 | – | CS(=O)(=O)c1ccccc1S(=O)(=O)Nc1ccc2[nH]nc(-c3ccc(F)cc3)c2c1 [Example 33, N-[3-(4-Fluorophenyl)-1H-indazol-5-yl]-2-methylsulfonylbenzenesulfonamide] |
| 96 | 54 | 95 | – | N#Cc1cccc(S(=O)(=O)Nc2ccc3[nH]nc(-c4ccccc4)c3c2)c1 [Example 154, 3-Cyano-N-(3-phenyl-1H-indazol-5-yl)-benzenesulfonamide] |
| 95 | 64 | 97 | – | COc1ccc(OC)c(S(=O)(=O)Nc2ccc3[nH]nc(-c4ccccc4)c3c2)c1 [Example 131, 2,5-Dimethoxy-N-(3-phenyl-1H-indazol-5-yl)-benzenesulfonamide] |
| 87 | 97 | 92 | – | COc1ccc(-c2n[nH]c3ccc(NS(=O)(=O)c4ccccc4S(C)(=O)=O)cc23)cc1 [Example 32, N-[3-(4-Methoxyphenyl)-1H-indazol-5-yl]-2-methylsulfonylbenzenesulfonamide] |

Reference: patent US6858638B2, “Substituted indazoles, compositions containing them, method of production and use” (Aventis Pharma S.A., priority 2002, dated 2005)
